# According to PubChem BioAssay AID2060505 (Molecular Pharmacology Branch, DTP, NCI, 2025):
# Test system: 633275-114-R-J1-PDC complex spheroids, viability
# Test: Anticancer human tumor 633275-114-R-J1-PDC patient-derived endometrial adenocarcinoma cell line growth inhibition [GQUAD]
# Settings: for IC50: curve of first compound; for viability, T/C: stronger effect = lower value
# Source text: DNA G-quadruplex Stabilizer Agents in Combinations in Complex Spheroids
# A high-throughput screen of multi-cell type tumor spheroids was designed to identify active combinations of DNA G-quadruplex stabilizer agents and targeted small molecules. Complex spheroids include a stromal component modeled by human endothelial cells (HUVEC) and fibroblasts modeled by human mesenchymal stem cells (MSCs). The concentration ranges selected for each drug and investigational agent were based upon clinically achievable concentrations if the clinical Cmax of the agent was known.
# Compounds. The drugs and investigational agents: pidnarulex (CX-5461; NSC782164), APTO-253 (NSC789042), BRACO-19 (NSC847499), peposertib (NSC802822), ceralasertib (NSC780249), elimusertib (NSC800525), camonsertib (NSC841442), AZD-1390 (NSC803789), olaparib (NSC753686), talazoparib (NSC767125), ART-558 (NSC835418), sotorasib (NSC818433), MRTX-1133 (NSC836407), SN-38 (NSC673596), topotecan (NSC609699), etoposide (NSC141540), doxorubicin (NSC123127), gemcitabine (NSC613327), 5-fluorouracil (NSC19893), paclitaxel (NSC125973), vemurafenib (NSC761431), panobinostat (NSC761190), R-306465 (JNJ-16241199; NSC773264), adavosertib (NSC754352), TP-3654 (NSC805149), carboplatin (NSC241240), KSQ-4279 (NSC840948), and staurosporine (NSC755774) were obtained from the National Cancer Institute (NCI) Developmental Therapeutics Program Chemical Repository (34). The FDA-approved anticancer drug set is available from the NCI Developmental Therapeutics Program. […] The stock solutions were prepared in dimethyl sulfoxide (DMSO, Sigma-Aldrich, St. Louis, MO, cat. D2650) at 800-fold the tested concentration and stored at -70 degrees C prior to their use. All drugs and investigational agents were tested over a range starting from a high concentration at or near the clinical Cmax and decreasing in half-log increments. If the clinical Cmax for an agent had not been determined, the highest concentration tested was 10 microM.
# 2.3 Cell Culture. All cells were maintained in an incubator at 37 degrees C and 5% CO2 with 95% humidity. The PDC lines were cultured according to standard operating procedures established by the NCI PDMR. All PDCs were thawed and cultured in Matrigel-coated flasks prepared with a working solution of 1X Ham's F-12 nutrient mix, without supplementation (Invitrogen, cat. 11765054), 100 U/mL penicillin-streptomycin (Invitrogen, cat. 15140122), and 2.5% Matrigel (Corning Inc., cat. 354248) for the first three passages. The 857933-349-R-J2-PDC line was cultured in 6C/Colon 1B media, which includes advanced DMEM/F-12 (Thermo Fisher Scientific, cat. 12634028), 10 mM HEPES (Thermo Fisher Scientific, cat. 15630080), 1X GlutaMAX supplement (Thermo Fisher Scientific, cat. 35050061), 0.1 mg/mL primocin (InvivoGen, cat. ant-pm-2), 10% defined fetal bovine serum, heat inactivated (HyClone Laboratories Inc., cat. SH30070.03HI), 50% L-WRN conditioned media (ATCC, cat. CRL-3276), 1.25 mM N-Acetyl-L-cysteine (Sigma-Aldrich, cat. A9165), 10 mM nicotinamide (Sigma-Aldrich, cat. N0636), 1X B-27 supplement (Thermo Fisher Scientific, cat. 17504044), 1X N-2 supplement (Thermo Fisher Scientific, cat. 17502048), 10 microM Y-27632 dihydrochloride (Tocris Bioscience, cat. 1254), and 50 ng/mL human EGF recombinant protein (Thermo Fisher Scientific, cat. PHG0311). The 485176-168-R4-J1-PDC line was cultured in Panc media, which includes all 6C/Colon 1B media components plus 100 ng/mL human FGF-10 (Thermo Fisher Scientific, cat. 100-26), 500 nM SB-431542 (Selleckchem, cat. S1067), and gastrin (Tocris, cat. 3006).
# […]
# [1] = second compound 0.0316 µM, first compound 0.0316 µM
# [2] = second compound 0.0316 µM, first compound 0.316 µM
# [3] = second compound 0.1 µM, first compound 0.0316 µM
# [4] = second compound 0.1 µM, first compound 0.316 µM
# [5] = second compound 0.316 µM, first compound 0.0316 µM
# [6] = second compound 0.316 µM, first compound 0.316 µM
# [7] = second compound 1 µM, first compound 0.0316 µM
# [8] = second compound 1 µM, first compound 0.316 µM
# [9] = second compound 3.16 µM, first compound 0.0316 µM
# [10] = second compound 3.16 µM, first compound 0.316 µM
# [11] = second compound 10 µM, first compound 0.0316 µM
# [12] = second compound 10 µM, first compound 0.316 µM
# 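Further: spheroids exposed to the agents for seven days.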
# 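Wherever viability, T/C is given: percent of DMSO vehicle control viability which is 100%.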
smiles,measurement,setting,value
Cn1ncnc1[C@H]1c2n[nH]c(=O)c3cc(F)cc(c23)N[C@@H]1c1ccc(F)cc1 + CN(C)c1ccc(Nc2c3ccc(NC(=O)CCN4CCCC4)cc3nc3cc(NC(=O)CCN4CCCC4)ccc23)cc1,IC50,second compound 0.0316 µM,> 0.316 µM
same,IC50,second compound 0.1 µM,> 0.316 µM
same,IC50,second compound 0.316 µM,> 0.316 µM
same,IC50,second compound 1 µM,> 0.316 µM
same,IC50,second compound 3.16 µM,> 0.316 µM
same,IC50,second compound 10 µM,< 0.000999 µM
same,"viability, T/C","second compound 0.0316 µM, first compound 0.000999 µM",103%
same,"viability, T/C","second compound 0.0316 µM, first compound 0.00316 µM",95.6%
same,"viability, T/C","second compound 0.0316 µM, first compound 0.00999 µM",82%
same,"viability, T/C",[1],76.8%
same,"viability, T/C","second compound 0.0316 µM, first compound 0.0999 µM",65.4%
same,"viability, T/C",[2],55.5%
same,"viability, T/C","second compound 0.1 µM, first compound 0.000999 µM",97.6%
same,"viability, T/C","second compound 0.1 µM, first compound 0.00316 µM",101%
same,"viability, T/C","second compound 0.1 µM, first compound 0.00999 µM",98%
same,"viability, T/C",[3],74.8%
same,"viability, T/C","second compound 0.1 µM, first compound 0.0999 µM",70.6%
same,"viability, T/C",[4],63.1%
same,"viability, T/C","second compound 0.316 µM, first compound 0.000999 µM",95.2%
same,"viability, T/C","second compound 0.316 µM, first compound 0.00316 µM",102%
same,"viability, T/C","second compound 0.316 µM, first compound 0.00999 µM",86.5%
same,"viability, T/C",[5],86.4%
same,"viability, T/C","second compound 0.316 µM, first compound 0.0999 µM",71.2%
same,"viability, T/C",[6],52.9%
same,"viability, T/C","second compound 1 µM, first compound 0.000999 µM",102%
same,"viability, T/C","second compound 1 µM, first compound 0.00316 µM",96.2%
same,"viability, T/C","second compound 1 µM, first compound 0.00999 µM",91.9%
same,"viability, T/C",[7],77.1%
same,"viability, T/C","second compound 1 µM, first compound 0.0999 µM",63.6%
same,"viability, T/C",[8],54.4%
same,"viability, T/C","second compound 3.16 µM, first compound 0.000999 µM",84.9%
same,"viability, T/C","second compound 3.16 µM, first compound 0.00316 µM",91.2%
same,"viability, T/C","second compound 3.16 µM, first compound 0.00999 µM",79.7%
same,"viability, T/C",[9],70%
same,"viability, T/C","second compound 3.16 µM, first compound 0.0999 µM",59.3%
same,"viability, T/C",[10],49.6%
same,"viability, T/C","second compound 10 µM, first compound 0.000999 µM",31.5%
same,"viability, T/C","second compound 10 µM, first compound 0.00316 µM",35.2%
same,"viability, T/C","second compound 10 µM, first compound 0.00999 µM",35.4%
same,"viability, T/C",[11],29.7%
same,"viability, T/C","second compound 10 µM, first compound 0.0999 µM",26.3%
same,"viability, T/C",[12],22%
O=C(c1cc(Cc2n[nH]c(=O)c3ccccc23)ccc1F)N1CCN(C(=O)C2CC2)CC1 + CN(C)c1ccc(Nc2c3ccc(NC(=O)CCN4CCCC4)cc3nc3cc(NC(=O)CCN4CCCC4)ccc23)cc1,IC50,second compound 0.0316 µM,9.96 µM
same,IC50,second compound 0.1 µM,9.89 µM
same,IC50,second compound 0.316 µM,> 10 µM
same,IC50,second compound 1 µM,> 10 µM
same,IC50,second compound 3.16 µM,5.36 µM
same,IC50,second compound 10 µM,< 0.0316 µM
same,"viability, T/C",[1],88.7%
same,"viability, T/C","second compound 0.0316 µM, first compound 0.1 µM",93.8%
same,"viability, T/C",[2],95%
same,"viability, T/C","second compound 0.0316 µM, first compound 1 µM",80%
same,"viability, T/C","second compound 0.0316 µM, first compound 3.16 µM",81.6%
same,"viability, T/C","second compound 0.0316 µM, first compound 10 µM",49.2%
same,"viability, T/C",[3],95.5%
same,"viability, T/C","second compound 0.1 µM, first compound 0.1 µM",98.1%
same,"viability, T/C",[4],92.7%
same,"viability, T/C","second compound 0.1 µM, first compound 1 µM",79.7%
same,"viability, T/C","second compound 0.1 µM, first compound 3.16 µM",69%
same,"viability, T/C","second compound 0.1 µM, first compound 10 µM",49.2%
same,"viability, T/C",[5],91.1%
same,"viability, T/C","second compound 0.316 µM, first compound 0.1 µM",99.8%
same,"viability, T/C",[6],88.4%
same,"viability, T/C","second compound 0.316 µM, first compound 1 µM",76.1%
same,"viability, T/C","second compound 0.316 µM, first compound 3.16 µM",75.8%
same,"viability, T/C","second compound 0.316 µM, first compound 10 µM",58.4%
same,"viability, T/C",[7],104%
same,"viability, T/C","second compound 1 µM, first compound 0.1 µM",82.9%
same,"viability, T/C",[8],78.7%
same,"viability, T/C","second compound 1 µM, first compound 1 µM",78.3%
same,"viability, T/C","second compound 1 µM, first compound 3.16 µM",69.8%
same,"viability, T/C","second compound 1 µM, first compound 10 µM",47.8%
same,"viability, T/C",[9],75.5%
same,"viability, T/C","second compound 3.16 µM, first compound 0.1 µM",80.6%
same,"viability, T/C",[10],69.6%
same,"viability, T/C","second compound 3.16 µM, first compound 1 µM",65.5%
same,"viability, T/C","second compound 3.16 µM, first compound 3.16 µM",62.9%
same,"viability, T/C","second compound 3.16 µM, first compound 10 µM",38%
same,"viability, T/C",[11],25.3%
same,"viability, T/C","second compound 10 µM, first compound 0.1 µM",26.1%
same,"viability, T/C",[12],27.1%
same,"viability, T/C","second compound 10 µM, first compound 1 µM",25.4%
same,"viability, T/C","second compound 10 µM, first compound 3.16 µM",29%
same,"viability, T/C","second compound 10 µM, first compound 10 µM",21.1%
